# Test: Study HDP-CDV-201: safety and tolerability (adverse events, laboratory abnormalities, discontinuations)
# Format: in vivo, human (adult allogeneic HSCT recipients)
# Experimental: Clinical Studies of HDP-CDV were performed and described in detail in the following Examples. For example, HDP-CDV-201 is a placebo-controlled, dose-escalating trial in HSCT CMV (R+) recipients, evaluating the ability of HDP-CDV to prevent or control CMV infection was carried out. Five cohorts were established in which participants or subjects received either placebo or the HDP-CDV orally, in doses ranging from 40 mg weekly (QW) to 200 mg twice weekly (BIW). Subjects who were post-HSCT were enrolled at the time of engraftment and randomized to HDP-CDV or placebo (3 to 1 ratio) and received blinded therapy until approximately 100 day post-transplantation. HDP-CDV doses were 40 mg QW, 100 mg QW, 200 mg QW, 200 mg BIW and 100 mg BIW. Escalation to the next dose was decided by the data monitoring committee after review of the safety data from the previous Cohort. Subjects who developed CMV disease or CMV infection requiring pre-emptive therapy with local standard of care were discontinued from blinded therapy and followed for 4 weeks. Subjects who completed treatment with blinded therapy were followed for 8 weeks post-therapy.
# Data from Study HDP-CDV-201 also provided characterization of the safety and tolerability profile of HDP-CDV when administered for the prevention or control of CMV infection in high risk (R^+) post-HSCT adult subjects.
# The Safety population (SAFETY) included all randomized subjects who took at least one dose of study treatment. This population was used to summarize safety outcomes based on the treatment actually received, in cases where a subject was treated contrary to the randomization schedule.
# The safety and tolerability profile of HDP-CDV, including subject demographics and Baseline characteristics; the AE profile; and laboratory abnormalities of interest were analyzed in the cohorts followed in this investigation.
# Subjects completing the treatment period received a full course of study medication; those completing the entire study attended visits through 8 weeks of follow up. Subjects who discontinued treatment may have done so for protocol specified reasons (e.g. development of clinically significant CMV infection requiring preemptive treatment with excluded anti-CMV medications) or for other reasons (e.g., withdrawal, adverse events, loss to follow-up). The disposition of subjects in Study HDP-CDV-201 during the double-blind, placebo-controlled treatment period (through Week 11) is listed by dosing Cohort in TABLE 23.
# Adverse events were examined by severity to ensure that all safety signals were identified in this study population. Because of the frequency of events in HSCT recipients, particular attention was given to evaluation of Grade 3 […], 4 (severe), and 5 (fatal) adverse events.
# Only those preferred terms for which at least one Grade 3 or higher event was experienced in any treatment group are listed. Cytomegalovirus-related AEs are excluded from this analysis.
# HDP-CDV is a lipid conjugate of CDV. Because CDV is known to have adverse effects on renal function and bone marrow, decreased GFR and persistent neutropenia were identified as AEs of special interest. Key renal and hematological (TABLE 30) laboratory parameters were measured and listed below by Study HDP-CDV-201 treatment groups. TABLE 30 includes abnormal levels of serum creatinine, neutrophils, platelets, WBCs, and hemoglobin and includes data at Screening and during the treatment period.
# A common metric for unit based dosing of medications is by weight (mg/kg). When the distribution of weights was examined for all subjects participating in the study, the median was 78 kg and the lower 25th percentile weight was approximately 65 kg, which translates to a cut-off of ˜3 mg/kg for a 200 mg total weekly dose. Based upon this approach, a cut-off of 3 mg/kg was used to assess the frequency of diarrhea and associated GI AEs reported for the subjects in Cohorts 3 or 4a (TABLE 40).
smiles,measurement,setting,value
CCCCCCCCCCCCCCCCOCCCOP(=O)(O)COC(CO)Cn1ccc(N)nc1=O (stereo not drawn) [HDP-CDV],"TEAE Pneumonia, Grade 4",40 mg QW,1 (4.0%)
same,"TEAE Pneumonia, Grade 5",40 mg QW,0
same,"TEAE Pyrexia, Frequency",40 mg QW,1 (4.0%)
same,"TEAE Pyrexia, Grade 2",40 mg QW,1 (4.0%)
same,"TEAE Pyrexia, Grade 3",40 mg QW,0
same,"TEAE Pyrexia, Grade 4",40 mg QW,0
same,"TEAE Pyrexia, Grade 5",40 mg QW,0
same,"TEAE Renal Failure, Frequency",40 mg QW,1 (4.0%)
same,"TEAE Renal Failure, Grade 2",40 mg QW,0
same,"TEAE Renal Failure, Grade 3",40 mg QW,1 (4.0%)
same,"TEAE Renal Failure, Grade 4",40 mg QW,0
same,"TEAE Renal Failure, Grade 5",40 mg QW,0
same,"TEAE Staphylococcal Bacteremia, Frequency",40 mg QW,0
same,"TEAE Staphylococcal Bacteremia, Grade 2",40 mg QW,0
same,"TEAE Staphylococcal Bacteremia, Grade 3",40 mg QW,0
same,"TEAE Staphylococcal Bacteremia, Grade 4",40 mg QW,0
same,"TEAE Staphylococcal Bacteremia, Grade 5",40 mg QW,0
same,"TEAE Thrombocytopenia, Frequency",40 mg QW,3 (12.0%)
same,"TEAE Thrombocytopenia, Grade 2",40 mg QW,1 (4.0%)
same,"TEAE Thrombocytopenia, Grade 3",40 mg QW,1 (4.0%)
same,"TEAE Thrombocytopenia, Grade 4",40 mg QW,1 (4.0%)
same,"TEAE Thrombocytopenia, Grade 5",40 mg QW,0
same,"TEAE Vomiting, Frequency",40 mg QW,2 (8.0%)
same,"TEAE Vomiting, Grade 2",40 mg QW,1 (4.0%)
same,"TEAE Vomiting, Grade 3",40 mg QW,0
same,"TEAE Vomiting, Grade 4",40 mg QW,0
same,"TEAE Vomiting, Grade 5",40 mg QW,0
same,subjects discontinued due to acute renal failure,40 mg QW,one
same,Subjects Reporting Diarrhea as an AE,"40 mg QW, n = 25",3 (12.0%)
same,Discontinuation: Death,"40 mg QW, active treatment period",1 (4.0%) Subject n (%)
same,Discontinuation: Adverse event,"40 mg QW, active treatment period through Week 11",3 (12.0%) Subject n (%)
same,"TEAE ALT increased, Frequency",100 mg BIW,9 (18.0%)
same,"TEAE ALT increased, Grade 2",100 mg BIW,1 (2.0%)
same,"TEAE ALT increased, Grade 3",100 mg BIW,4 (8.0%)
same,"TEAE ALT increased, Grade 4",100 mg BIW,0
same,"TEAE ALT increased, Grade 5",100 mg BIW,0
same,"TEAE AML, Recurrent, Frequency",100 mg BIW,3 (6.0%)
same,"TEAE AML, Recurrent, Grade 2",100 mg BIW,1 (2.0%)
same,"TEAE AML, Recurrent, Grade 3",100 mg BIW,0
same,"TEAE AML, Recurrent, Grade 4",100 mg BIW,1 (2.0%)
same,"TEAE AML, Recurrent, Grade 5",100 mg BIW,1 (2.0%)
same,"TEAE AST increased, Frequency",100 mg BIW,5 (10.0%)
same,"TEAE AST increased, Grade 2",100 mg BIW,1 (2.0%)
same,"TEAE AST increased, Grade 3",100 mg BIW,3 (6.0%)
same,"TEAE AST increased, Grade 4",100 mg BIW,0
same,"TEAE AST increased, Grade 5",100 mg BIW,0
same,"TEAE Abdominal pain, Frequency",100 mg BIW,13 (26.0%)
same,"TEAE Abdominal pain, Grade 2",100 mg BIW,1 (2.0%)
same,"TEAE Abdominal pain, Grade 3",100 mg BIW,1 (2.0%)
same,"TEAE Abdominal pain, Grade 4",100 mg BIW,0
same,"TEAE Abdominal pain, Grade 5",100 mg BIW,0
same,"TEAE Acute GVHD, Frequency",100 mg BIW,32 (64.0%)
same,"TEAE Acute GVHD, Grade 2",100 mg BIW,11 (22.0%)
same,"TEAE Acute GVHD, Grade 3",100 mg BIW,12 (24.0%)
same,"TEAE Acute GVHD, Grade 4",100 mg BIW,5 (10.0%)
same,"TEAE Arthralgias, Frequency",100 mg BIW,3 (6.0%)
same,"TEAE Arthralgias, Grade 2",100 mg BIW,1 (2.0%)
same,"TEAE Arthralgias, Grade 3",100 mg BIW,1 (2.0%)
same,"TEAE Arthralgias, Grade 4",100 mg BIW,0
same,"TEAE Arthralgias, Grade 5",100 mg BIW,0
same,"TEAE Back Pain, Frequency",100 mg BIW,4 (8.0%)
same,"TEAE Back Pain, Grade 2",100 mg BIW,3 (6.0%)
same,"TEAE Back Pain, Grade 3",100 mg BIW,0
same,"TEAE Back Pain, Grade 4",100 mg BIW,0
same,"TEAE Back Pain, Grade 5",100 mg BIW,0
same,"TEAE Decreased appetite, Frequency",100 mg BIW,9 (18.0%)
same,"TEAE Decreased appetite, Grade 3",100 mg BIW,3 (6.0%)
same,"TEAE Decreased appetite, Grade 4",100 mg BIW,0
same,"TEAE Decreased appetite, Grade 5",100 mg BIW,0
same,"TEAE Diarrhea, Frequency",100 mg BIW,26 (52.0%)
same,"TEAE Diarrhea, Grade 2",100 mg BIW,6 (12.0%)
same,"TEAE Diarrhea, Grade 3",100 mg BIW,9 (18.0%)
same,"TEAE Diarrhea, Grade 4",100 mg BIW,0
same,"TEAE Diarrhea, Grade 5",100 mg BIW,0
same,"TEAE Fatigue, Frequency",100 mg BIW,9 (18.0%)
same,"TEAE Fatigue, Grade 2",100 mg BIW,2 (4.0%)
same,"TEAE Fatigue, Grade 3",100 mg BIW,0
same,"TEAE Fatigue, Grade 4",100 mg BIW,0
same,"TEAE Fatigue, Grade 5",100 mg BIW,0
same,"TEAE GGT Increased, Frequency",100 mg BIW,4 (8.0%)
same,"TEAE GGT Increased, Grade 2",100 mg BIW,1 (2.0%)
same,"TEAE GGT Increased, Grade 3",100 mg BIW,3 (6.0%)
same,"TEAE GGT Increased, Grade 4",100 mg BIW,0
same,"TEAE GGT Increased, Grade 5",100 mg BIW,0
same,"TEAE Generalized oedema, Frequency",100 mg BIW,1 (2.0%)
same,"TEAE Generalized oedema, Grade 2",100 mg BIW,1 (2.0%)
same,"TEAE Generalized oedema, Grade 3",100 mg BIW,0
same,"TEAE Generalized oedema, Grade 4",100 mg BIW,0
same,"TEAE Generalized oedema, Grade 5",100 mg BIW,0
same,"TEAE Hyperbilirubinaemia, Frequency",100 mg BIW,3 (6.0%)
same,"TEAE Hyperbilirubinaemia, Grade 2",100 mg BIW,1 (2.0%)
same,"TEAE Hyperbilirubinaemia, Grade 3",100 mg BIW,0
same,"TEAE Hyperbilirubinaemia, Grade 4",100 mg BIW,0
same,"TEAE Hyperbilirubinaemia, Grade 5",100 mg BIW,0
same,"TEAE Hyperglycaemia, Frequency",100 mg BIW,9 (18.0%)
same,"TEAE Hyperglycaemia, Grade 2",100 mg BIW,4 (8.0%)
same,"TEAE Hyperglycaemia, Grade 3",100 mg BIW,2 (4.0%)
same,"TEAE Hyperglycaemia, Grade 4",100 mg BIW,1 (2.0%)
same,"TEAE Hyperglycaemia, Grade 5",100 mg BIW,0
same,"TEAE Hyperkalemia, Frequency",100 mg BIW,3 (6.0%)
same,"TEAE Hyperkalemia, Grade 2",100 mg BIW,2 (4.0%)
same,"TEAE Hyperkalemia, Grade 3",100 mg BIW,0
same,"TEAE Hyperkalemia, Grade 4",100 mg BIW,0
same,"TEAE Hyperkalemia, Grade 5",100 mg BIW,0
same,"TEAE Hypocalcaemia, Frequency",100 mg BIW,2 (4.0%)
same,"TEAE Hypocalcaemia, Grade 2",100 mg BIW,1 (2.0%)
same,"TEAE Hypocalcaemia, Grade 3",100 mg BIW,1 (2.0%)
same,"TEAE Hypocalcaemia, Grade 4",100 mg BIW,0
same,"TEAE Hypocalcaemia, Grade 5",100 mg BIW,0
same,"TEAE Hypokalaemia, Frequency",100 mg BIW,8 (16.0%)
same,"TEAE Hypokalaemia, Grade 2",100 mg BIW,2 (4.0%)

# — patent publication US20140303092A1 (CHIMERIX, INC., priority 2011, published 2014)
